Data: ChEMBL document CHEMBL1201862, “PubChem BioAssay data set” (2004)
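How tested: cells in 96-well plates exposed to compound for 48 hours at five concentrations. Abbreviation: GI50, concentration required for 50% inhibition of growth.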 The source made the active and inactive calls. Cut-off read from the data, not from the text of the source: active = GI50 up to about 1.1 µM and inactive = higher. Square brackets hold non-standard residues; d marks the D form. Peptide text beside a SMILES is read from it. * marks the point of attachment. X26 = COC1=CC(=O)N(C(=O)[C@@H](O*)C(C)C)[C@H]1Cc1ccccc1; NMeV = CN[C@H](C(=O)O)C(C)C; Hexanoyl = CCCCCC(=O)*

What was measured:
Experiment in all cases: DTP human tumour cell line panel, 48 h
A498 = test system: A498
ACHN = test system: ACHN
CAKI-1 = test system: CAKI-1
COLO 205 = test system: COLO 205
HCC 2998 = test system: HCC 2998
HCT-15 = test system: HCT-15
K562 = test system: K562
MDA-MB-435 = test system: MDA-MB-435
MDA-N = test system: MDA-N
NCI-H23 = test system: NCI-H23
NCI/ADR-RES = test system: NCI/ADR-RES
OVCAR-3 = test system: OVCAR-3
OVCAR-4 = test system: OVCAR-4
SF-295 = test system: SF-295
SK-OV-3 = test system: SK-OV-3
SNB-19 = test system: SNB-19
TK-10 = test system: TK-10
UACC-257 = test system: UACC-257

Measured: GI50

CCOC(=O)c1cn2c(n1)sc1c(Cl)c(Cl)ccc12
5.07 µM: HCT-15
inactive: A498 20.6 µM | ACHN 15.3 µM | CAKI-1 9.86 µM | COLO 205 6.1 µM | HCC 2998 30.7 µM | K562 3.96 µM | MDA-MB-435 3.31 µM | MDA-N 1.56 µM | NCI-H23 29.4 µM | NCI/ADR-RES 8.38 µM | OVCAR-3 11.1 µM | OVCAR-4 46.6 µM | SF-295 22.9 µM | SK-OV-3 > 51.8 µM | SNB-19 25.3 µM | TK-10 24.4 µM | UACC-257 28.2 µM

O=C1C=CC(=O)c2c1ccc1c3ccccc3n(CCCCCCCCn3c4ccccc4c4ccc5c(c43)C(=O)C=CC5=O)c21
inactive: A498 > 100 µM | ACHN > 100 µM | CAKI-1 > 100 µM | COLO 205 > 100 µM | HCC 2998 > 100 µM | K562 > 100 µM | MDA-MB-435 > 100 µM | MDA-N > 100 µM | NCI-H23 > 100 µM | NCI/ADR-RES > 100 µM | OVCAR-3 > 100 µM | OVCAR-4 > 100 µM | SF-295 > 100 µM | SK-OV-3 > 100 µM | SNB-19 > 100 µM | TK-10 > 100 µM | UACC-257 > 100 µM
> 100 µM: HCT-15

COc1ccc(-c2csc(Cc3nc4ccccc4c(=O)n3-c3ccc(Cl)cc3)n2)cc1
29.1 µM: HCT-15
inactive: A498 70.8 µM | ACHN 30.9 µM | CAKI-1 > 100 µM | COLO 205 34.9 µM | HCC 2998 29.9 µM | K562 14.6 µM | MDA-MB-435 28.5 µM | MDA-N 22.7 µM | NCI-H23 28.8 µM | NCI/ADR-RES 56.1 µM | OVCAR-3 40.5 µM | OVCAR-4 52.6 µM | SF-295 50.4 µM | SK-OV-3 > 100 µM | SNB-19 24.4 µM | TK-10 > 100 µM | UACC-257 51.1 µM

C=CN1CCN(c2ccccc2)P1(=O)Oc1ccccc1 (stereo not drawn)
inactive: A498 > 100 µM | ACHN 48.8 µM | CAKI-1 > 100 µM | COLO 205 > 100 µM | HCC 2998 > 100 µM | K562 > 100 µM | MDA-MB-435 90.6 µM | MDA-N 63.4 µM | NCI-H23 > 100 µM | NCI/ADR-RES 55.2 µM | OVCAR-3 > 100 µM | OVCAR-4 > 100 µM | SF-295 > 100 µM | SK-OV-3 > 100 µM | SNB-19 > 100 µM | TK-10 39.9 µM | UACC-257 > 100 µM
> 100 µM: HCT-15

Cc1cccc2sc(NC(=O)c3cc([N+](=O)[O-])ccc3Cl)nc12
inactive: A498 17.3 µM | ACHN 5.41 µM | CAKI-1 3.85 µM | COLO 205 5.96 µM | HCC 2998 9.33 µM | K562 > 100 µM | MDA-MB-435 2.67 µM | MDA-N 1.56 µM | NCI-H23 2.79 µM | NCI/ADR-RES 2.76 µM | OVCAR-3 4.06 µM | OVCAR-4 8.51 µM | SF-295 4.82 µM | SK-OV-3 13.1 µM | SNB-19 7.78 µM | TK-10 2.59 µM | UACC-257 6.84 µM
1.91 µM: HCT-15

NCCCN1c2ccccc2Sc2ccc(Cl)cc21
4.72 µM: HCT-15
inactive: A498 > 10 µM | ACHN 6.18 µM | CAKI-1 > 8.24 µM | COLO 205 1.81 µM | HCC 2998 2.12 µM | K562 2.63 µM | MDA-MB-435 1.93 µM | MDA-N 3.69 µM | NCI-H23 > 10 µM | NCI/ADR-RES > 5.4 µM | OVCAR-3 5.3 µM | OVCAR-4 > 10 µM | SF-295 > 5.83 µM | SK-OV-3 > 6.56 µM | SNB-19 > 8.45 µM | TK-10 5.96 µM | UACC-257 > 6.19 µM

COC(=O)C1=C(C(=O)OC)c2cc(OC)ccc2C(C(=S)N(C)C)S1 (stereo not drawn)
> 100 µM: HCT-15
inactive: A498 > 100 µM | ACHN > 100 µM | CAKI-1 99.1 µM | COLO 205 > 100 µM | HCC 2998 > 100 µM | K562 > 100 µM | MDA-MB-435 > 100 µM | MDA-N > 100 µM | NCI-H23 > 100 µM | NCI/ADR-RES > 100 µM | OVCAR-3 > 100 µM | OVCAR-4 > 100 µM | SF-295 > 100 µM | SK-OV-3 > 100 µM | SNB-19 > 100 µM | TK-10 > 100 µM | UACC-257 > 100 µM

CCCCCC(=O)N[C@H](C(=O)N[C@H](C(=O)N(C)[C@H](C(=O)N1CCC[C@H]1C(=O)N1CCC[C@H]1C(=O)O[C@H](C(=O)N1C(=O)C=C(OC)[C@@H]1Cc1ccccc1)C(C)C)C(C)C)C(C)C)C(C)C (Hexanoyl-VV[NMeV]PP-X26)
inactive: A498 46.3 µM | ACHN > 100 µM | CAKI-1 > 100 µM | COLO 205 > 100 µM | HCC 2998 > 100 µM | K562 71.1 µM | MDA-MB-435 36.2 µM | MDA-N 33.8 µM | NCI-H23 > 100 µM | NCI/ADR-RES > 100 µM | OVCAR-3 > 100 µM | OVCAR-4 > 100 µM | SF-295 > 100 µM | SK-OV-3 > 100 µM | TK-10 > 100 µM | UACC-257 87.7 µM
> 100 µM: HCT-15

COc1cc(/C=C/c2sc3ccccc3[n+]2C)ccc1N(C)C
inactive: A498 44 µM | ACHN 11.1 µM | CAKI-1 35.6 µM | COLO 205 1.29 µM | HCC 2998 21.8 µM | K562 2.1 µM | MDA-MB-435 3.32 µM | MDA-N 2.48 µM | NCI-H23 11.5 µM | NCI/ADR-RES > 10 µM | OVCAR-3 2.23 µM | OVCAR-4 1.33 µM | SF-295 47.4 µM | SK-OV-3 23.6 µM | SNB-19 12.9 µM | TK-10 13.2 µM | UACC-257 2.96 µM
37.2 µM: HCT-15

Nc1ccccc1/N=N/c1c(S(=O)(=O)O)cc2cc(S(=O)(=O)O)cc(O)c2c1O
> 100 µM: HCT-15
inactive: A498 > 100 µM | ACHN > 100 µM | CAKI-1 > 100 µM | COLO 205 > 100 µM | HCC 2998 > 100 µM | K562 > 100 µM | MDA-MB-435 > 100 µM | MDA-N 32.4 µM | NCI-H23 > 100 µM | NCI/ADR-RES > 100 µM | OVCAR-3 > 100 µM | OVCAR-4 > 100 µM | SF-295 > 100 µM | SK-OV-3 > 100 µM | SNB-19 > 100 µM | TK-10 > 100 µM | UACC-257 > 100 µM

COc1cc2c3c(c1)CCCN3CCC2
> 10 µM: HCT-15
inactive: A498 > 10 µM | ACHN > 10 µM | CAKI-1 > 10 µM | COLO 205 > 10 µM | HCC 2998 > 10 µM | K562 > 10 µM | MDA-MB-435 > 10 µM | MDA-N > 10 µM | NCI-H23 > 10 µM | NCI/ADR-RES > 10 µM | OVCAR-3 > 10 µM | OVCAR-4 > 10 µM | SF-295 > 10 µM | SK-OV-3 > 10 µM | SNB-19 > 10 µM | TK-10 > 10 µM | UACC-257 > 10 µM

CC(C)(C)N1C=[N+](C(C)(C)C)CC1
> 100 µM: HCT-15
inactive: A498 38.7 µM | ACHN > 100 µM | CAKI-1 > 100 µM | COLO 205 > 100 µM | HCC 2998 > 100 µM | K562 > 100 µM | MDA-MB-435 > 100 µM | MDA-N > 100 µM | NCI-H23 > 100 µM | NCI/ADR-RES > 100 µM | OVCAR-3 > 100 µM | OVCAR-4 > 100 µM | SF-295 > 100 µM | SK-OV-3 > 100 µM | SNB-19 > 100 µM | TK-10 > 100 µM | UACC-257 > 100 µM

C=C1C(=O)OC2C1C(OC(=O)/C(C)=C/C)CC1(C)C(=O)CCC(=C)C21 (stereo not drawn)
inactive: A498 13.8 µM | ACHN 2.4 µM | CAKI-1 4.79 µM | COLO 205 5.33 µM | HCC 2998 9.73 µM | K562 3.13 µM | MDA-MB-435 8.2 µM | MDA-N 5.07 µM | NCI-H23 12.8 µM | NCI/ADR-RES 6.89 µM | OVCAR-3 6.92 µM | OVCAR-4 11 µM | SF-295 18.5 µM | SK-OV-3 25.2 µM | TK-10 4.89 µM | UACC-257 11.2 µM
3.15 µM: HCT-15

O=C(COc1ccc(OCC(=O)N2C(=O)CC/C2=N\c2ccc(Cl)cc2)cc1)N1C(=O)CS/C1=N\c1ccc(Cl)cc1
> 100 µM: HCT-15
inactive: A498 > 100 µM | ACHN 49.8 µM | CAKI-1 > 100 µM | COLO 205 47.9 µM | HCC 2998 > 100 µM | K562 66.4 µM | MDA-MB-435 > 100 µM | MDA-N > 100 µM | NCI-H23 42 µM | NCI/ADR-RES > 100 µM | OVCAR-3 61.2 µM | OVCAR-4 75.3 µM | SF-295 52.8 µM | SK-OV-3 > 100 µM | SNB-19 63.2 µM | TK-10 > 100 µM | UACC-257 56 µM

CC(N)/C(N)=N/O (stereo not drawn)
> 100 µM: HCT-15
inactive: A498 > 100 µM | ACHN > 100 µM | CAKI-1 > 100 µM | COLO 205 > 100 µM | HCC 2998 > 100 µM | K562 > 100 µM | MDA-MB-435 > 100 µM | MDA-N > 100 µM | NCI-H23 > 100 µM | NCI/ADR-RES > 100 µM | OVCAR-3 > 100 µM | OVCAR-4 > 100 µM | SF-295 > 100 µM | SK-OV-3 > 100 µM | SNB-19 > 100 µM | TK-10 > 100 µM | UACC-257 > 100 µM
